Test: recombinant barcode read abundance after kanamycin selection (control-corrected) (log10(CPM+1)); higher = more efficient recombination; sequences stand for … in AGTGCAGAGAAAATCGGCCAGTTTTCTCTGCCTGCAGTCCGCATGCCGT…AGATTTATGCAGCGGACTGCCTTTCTCCCAAAGTGATAAACCGGACAGTATCATGGACCGGTTTTCCCGGTAATCCGTATTTGCAAGGTTGGTTTCACT; site = the 11-nt target
Outline: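 Recombination efficiency was calculated from barcode counts at recombinant junctions, normalized to counts per million, averaged and corrected by the control. Each value is given as log10(CPM+1). The constructs were Gibson-cloned oligos (promoter, target, barcode, J23119-driven first 104 bridge RNA bases) in a vector with the remaining 73 bp and a T7-inducible recombinase, co-electroporated into E. coli with a donor plasmid and plated in duplicate on chloramphenicol/ampicillin LB agar (control) or chloramphenicol/ampicillin/kanamycin with 0.1 mM IPTG.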
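Also: IS621 recombinase and bridge RNA in Escherichia coli cells.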

Sequence | recombinant barcode read abundance (log10)
AGGGATCCTTGGGTTCTAACCTGTTGCGG (site AAGTATCCTCC) | 0.032
AGGGATCCTTGGGTTCTAACCTGTTGCGG (site AGGGATCCTCC) | 2.7
AGGGCACCTTGGGTTCTAACCTGTTGCCA (site AGGGCACCTTG) | 1.26
AGGGCACCTTGGGTTCTAACCTGTTGCCA (site ATGGCACCTAG) | 0.186
AGGGCTTCTTGGGTTCTAACCTGTTGCTA (site ACGGCTTCTTA) | 0
AGGGCTTCTTGGGTTCTAACCTGTTGCTA (site AGGGCTTCTTA) | 1.87
AGGGGAGCTTGGGTTCTAACCTGTTGCGG (site AGGGGAGCTCC) | 2.35
AGGGGAGCTTGGGTTCTAACCTGTTGCGG (site ATGGGAGCTTC) | 0.0749
AGGGGATCTTGGGTTCTAACCTGTTGCCT (site AGGGGATCTAG) | 1.86
AGGGGATCTTGGGTTCTAACCTGTTGCCT (site AGTGGAGCTAG) | 0.0518
AGGGGCACTTGGGTTCTAACCTGTTGCCG (site ACGGTCACTCG) | 0.104
AGGGGCACTTGGGTTCTAACCTGTTGCCG (site AGGGGCACTCG) | 1.83
AGGGGCTCTTGGGTTCTAACCTGTTGCTG (site ACGGGCTCTAA) | 0.0932
AGGGGCTCTTGGGTTCTAACCTGTTGCTG (site AGGGGCTCTCA) | 3.01
AGGTAACCTTGGGTTCTAACCTGTTGCCT (site AGGTAACCTAG) | 0.401
AGGTAACCTTGGGTTCTAACCTGTTGCCT (site CGGTAACCTAG) | 0.23
AGGTAACCTTGGGTTCTAACCTGTTGCCT (site GGGTAACCTAG) | 0.885
AGGTAACCTTGGGTTCTAACCTGTTGCCT (site TGGTAACCTAG) | 0.179

Sequence | recombinant barcode read abundance (log10)
AGGTCAACTTGGGTTCTAACCTGTTGCCG (site AGGTCAACTCG) | 0.0699
AGGTCAACTTGGGTTCTAACCTGTTGCCG (site TAAGGTCCTAA) | 0.0279
AGGTCACCTTGGGTTCTAACCTGTTGCCT (site AGGTCACCTAA) | 0.0905
AGGTCACCTTGGGTTCTAACCTGTTGCCT (site AGGTCACCTAC) | 0.897
AGGTCACCTTGGGTTCTAACCTGTTGCCT (site AGGTCACCTAG) | 1.83
AGGTCACCTTGGGTTCTAACCTGTTGCCT (site AGGTCACCTAT) | 0.221
AGGTCCGCTTGGGTTCTAACCTGTTGCTA (site AGGTCCGCTTA) | 1.4
AGGTCCGCTTGGGTTCTAACCTGTTGCTA (site CACCAGCCTAT) | 0.026
AGGTCCTCTTGGGTTCTAACCTGTTGCAT (site AGGTCCTCTAA) | 0.282
AGGTCCTCTTGGGTTCTAACCTGTTGCAT (site AGGTCCTCTAC) | 0.0867
AGGTCCTCTTGGGTTCTAACCTGTTGCAT (site AGGTCCTCTAG) | 0.707
AGGTCCTCTTGGGTTCTAACCTGTTGCAT (site AGGTCCTCTAT) | 2.24
AGGTCCTCTTGGGTTCTAACCTGTTGCTA (site AGGTCCTCTTA) | 1.96
AGGTCCTCTTGGGTTCTAACCTGTTGCTA (site TGATCCTCTTA) | 0.0783
AGGTGCTCTTGGGTTCTAACCTGTTGCCT (site AAGTGCTCTAG) | 0.0629
AGGTGCTCTTGGGTTCTAACCTGTTGCCT (site ACGTGCTCTAG) | 0.179
AGGTGCTCTTGGGTTCTAACCTGTTGCCT (site AGGTGCTCTAG) | 1.6
AGGTGCTCTTGGGTTCTAACCTGTTGCCT (site ATGTGCTCTAG) | 0.107

From the supplement of paper PMC11208160
